≈ marks a conversion by molar mass, not a printed value.
How the values were obtained:
Test in all cases: In vitro antibacterial evaluation: minimum inhibitory concentration (MIC), broth dilution method
Type in all cases: cell-based
[1] = tested on: Streptococcus sp.; conditions: 18 hours at 35° C.
Experimental: (§1) The minimum inhibitory concentration (MIC), the lowest concentration of the antibiotic which inhibits growth of the test organism, is determined by the broth dilution method using Muller-Hinton II […] (Baltimore Biological Laboratories) following the recommendations of the National Committee for Clinical Laboratory Standards [Methods for dilution antimicrobial susceptibility tests for bacteria that grow aerobically, approved standard M7-A2, National Committee for Clinical Laboratory Standards, Villanova, Pa].
(§2) An inoculum level of 5×10^5 CFU/mL, and a range of antibiotic concentrations (64-0.06 μg/mL) is used. […] The test organisms include a spectrum of Gram-positive bacteria comprised of Staphylococcus sp., Streptococcus sp. and Enterococcus sp. These organisms include recent clinical isolates that are resistant to methicillin, penicillin and/or vancomycin.

[2] = tested on: Staphylococcus sp.; conditions: for MIC Staphylococcus aureus (ATCC 29213): strain ATCC 29213; for MIC Staphylococcus aureus (GC 1131): strain GC 1131; for MIC Staphylococcus aureus (GC 4541): strain GC 4541; for MIC Staphylococcus aureus-SMITH (GC 4543): strain GC 4543; for MIC Coagulase Negative Staphylococcus (GC 4547): strain GC 4547; for MIC Coagulase Negative Staphylococcus (GC 4548): strain GC 4548; for MIC Coagulase Negative Staphylococcus (GC 4549): strain GC 4549; for MIC Coagulase Negative Staphylococcus (GC 6257): strain GC 6257
Experimental: as §1, §2

[3] = tested on: Enterococcus sp.; conditions: 18 hours at 35° C.
Experimental: as §1, §2

[4] = tested on: Escherichia coli; conditions: 18 hours at 35° C.
Experimental: as §1, §2

[5] = Streptococcus pneumoniae (ATCC 6301)
[6] = Streptococcus pneumoniae (GC 1894)
[7] = broth dilution, inoculum 5×10^5 CFU/mL
[8] = Enterococcus faecalis (ATCC 29212)
[9] = Enterococcus faecalis (GC 2242)
[10] = Enterococcus faecalis (GC 6189)

## CC(c1ccccc1)C1NC(=O)CNC(=O)C(CO)NC(=O)C(C(O)C2CNC(=N)N2C2OC(CO)C(O)C(O)C2O)NC(=O)C(C(O)C2CNC(=N)N2)NC(=O)C(Cc2ccc(OC3OC(CO)C(OC4OC5COC(c6ccc(C(=O)c7ccc(I)cc7)cc6)OC5C(O)C4O)C(O)C3O)cc2)NC1=O (stereo not shown) [Example 186]
[1]; Streptococcus agalactiae (GC 4564)
  MIC Streptococcus agalactiae (GC 4564): <0.06 µg/mL
[1]; [5]
  MIC Streptococcus pneumoniae (ATCC 6301): <0.06 µg/mL
[1]; [6]
  MIC Streptococcus pneumoniae (GC 1894): <0.06 µg/mL
[1]; Streptococcus pneumoniae (GC 4565)
  MIC Streptococcus pneumoniae (GC 4565): <0.06 µg/mL
[1]; Streptococcus pyogenes (GC 4563)
  MIC Streptococcus pyogenes (GC 4563): 0.25 µg/mL (≈ 0.155 µM)
[1]; [7]
  MIC Streptococcus agalactiae (GC 4564): <0.06 µg/mL
  MIC Streptococcus pneumoniae (ATCC 6301): <0.06 µg/mL
  MIC Streptococcus pneumoniae (GC 1894): <0.06 µg/mL
  MIC Streptococcus pneumoniae (GC 4565): <0.06 µg/mL
  MIC Streptococcus pyogenes (GC 4563): 0.25 µg/mL (≈ 0.155 µM)
[2]
  MIC Staphylococcus aureus (ATCC 29213): 2 µg/mL (≈ 1.24 µM)
  MIC Staphylococcus aureus (GC 1131): 2 µg/mL (≈ 1.24 µM)
  MIC Staphylococcus aureus (GC 4541): 2 µg/mL (≈ 1.24 µM)
  MIC Staphylococcus aureus-SMITH (GC 4543): 2 µg/mL (≈ 1.24 µM)
  MIC Coagulase Negative Staphylococcus (GC 4547): 2 µg/mL (≈ 1.24 µM)
  MIC Coagulase Negative Staphylococcus (GC 4548): 1 µg/mL (≈ 0.62 µM)
  MIC Coagulase Negative Staphylococcus (GC 4549): 1 µg/mL (≈ 0.62 µM)
  MIC Coagulase Negative Staphylococcus (GC 6257): 0.5 µg/mL (≈ 0.31 µM)
[2]; strain GC 3051
  MIC Staphylococcus aureus (GC 3051): 2 µg/mL (≈ 1.24 µM)
[2]; strain GC 3053
  MIC Staphylococcus aureus (GC 3053): 2 µg/mL (≈ 1.24 µM)
[2]; strain GC 4542
  MIC Staphylococcus aureus (GC 4542): 1 µg/mL (≈ 0.62 µM)
[2]; strain GC 4544
  MIC Staphylococcus aureus (GC 4544): 2 µg/mL (≈ 1.24 µM)
[2]; strain GC 4545
  MIC Staphylococcus aureus (GC 4545): 2 µg/mL (≈ 1.24 µM)
[2]; strain GC 4546
  MIC Staphylococcus haemolyticus (GC 4546): 1 µg/mL (≈ 0.62 µM)
[2]; strain GC 4551
  MIC Coagulase Negative Staphylococcus (GC 4551): 2 µg/mL (≈ 1.24 µM)
[3]; Enterococcus avium (GC 4558)
  MIC Enterococcus avium (GC 4558): 2 µg/mL (≈ 1.24 µM)
[3]; [8]
  MIC Enterococcus faecalis (ATCC 29212): 2 µg/mL (≈ 1.24 µM)
[3]; [9]
  MIC Enterococcus faecalis (GC 2242): 2 µg/mL (≈ 1.24 µM)
[3]; Enterococcus faecalis (GC 2691)
  MIC Enterococcus faecalis (GC 2691): 2 µg/mL (≈ 1.24 µM)
[3]; Enterococcus faecalis (GC 3059)
  MIC Enterococcus faecalis (GC 3059): 2 µg/mL (≈ 1.24 µM)
[3]; Enterococcus faecalis (GC 4552)
  MIC Enterococcus faecalis (GC 4552): 2 µg/mL (≈ 1.24 µM)
[3]; Enterococcus faecalis (GC 4553)
  MIC Enterococcus faecalis (GC 4553): 2 µg/mL (≈ 1.24 µM)
[3]; Enterococcus faecalis (GC 4554)
  MIC Enterococcus faecalis (GC 4554): 2 µg/mL (≈ 1.24 µM)
[3]; [10]
  MIC Enterococcus faecalis (GC 6189): 1 µg/mL (≈ 0.62 µM)
[3]; Enterococcus faecium (GC 2243)
  MIC Enterococcus faecium (GC 2243): 2 µg/mL (≈ 1.24 µM)
[3]; Enterococcus faecium (GC 4556)
  MIC Enterococcus faecium (GC 4556): 2 µg/mL (≈ 1.24 µM)
[3]; Enterococcus faecium (GC 4557)
  MIC Enterococcus faecium (GC 4557): 2 µg/mL (≈ 1.24 µM)
[3]; [7]
  MIC Enterococcus avium (GC 4558): 2 µg/mL (≈ 1.24 µM)
  MIC Enterococcus faecalis (ATCC 29212): 2 µg/mL (≈ 1.24 µM)
  MIC Enterococcus faecalis (GC 2242): 2 µg/mL (≈ 1.24 µM)
  MIC Enterococcus faecalis (GC 2691): 2 µg/mL (≈ 1.24 µM)
  MIC Enterococcus faecalis (GC 3059): 2 µg/mL (≈ 1.24 µM)
  MIC Enterococcus faecalis (GC 4552): 2 µg/mL (≈ 1.24 µM)
  MIC Enterococcus faecalis (GC 4553): 2 µg/mL (≈ 1.24 µM)
  MIC Enterococcus faecalis (GC 4554): 2 µg/mL (≈ 1.24 µM)
  MIC Enterococcus faecalis (GC 6189): 1 µg/mL (≈ 0.62 µM)
  MIC Enterococcus faecium (GC 2243): 2 µg/mL (≈ 1.24 µM)
  MIC Enterococcus faecium (GC 4556): 2 µg/mL (≈ 1.24 µM)
  MIC Enterococcus faecium (GC 4557): 2 µg/mL (≈ 1.24 µM)
[4]
  MIC Escherichia coli (ATCC 25922): 64 µg/mL (≈ 39.7 µM)
  MIC Escherichia coli (GC 4559): 64 µg/mL (≈ 39.7 µM)
  MIC Escherichia coli (GC 4560): 4 µg/mL (≈ 2.48 µM)

## CC(c1ccccc1)C1NC(=O)CNC(=O)C(CO)NC(=O)C(C(O)C2CNC(=N)N2C2OC(CO)C(O)C(O)C2O)NC(=O)C(C(O)C2CNC(=N)N2)NC(=O)C(Cc2ccc(OC3OC(CO)C(OC4OC5COC6(CCCCCCCCCCC6)OC5C(O)C4O)C(O)C3O)cc2)NC1=O (stereo not drawn) [Example 209, Cyclo[glycyl-β-methylphenylalanyl-O-[4-O-(4,6-O-cyclododecylidenehexopyranosyl)-hexopyranosyl]tyrosyl-3-(2-iminoimidazolidin-4-yl)seryl-3-(3-hexopyranosyl-2-iminoimidazolidin-4-yl)serylseryl]]
[1]; [5]
  MIC Streptococcus pneumoniae (ATCC 6301): <0.06 µg/mL
[1]; [6]
  MIC Streptococcus pneumoniae (GC 1894): <0.06 µg/mL
[1]; [7]
  MIC Streptococcus pneumoniae (ATCC 6301): <0.06 µg/mL
  MIC Streptococcus pneumoniae (GC 1894): <0.06 µg/mL
[2]
  MIC Staphylococcus aureus (ATCC 29213): 4 µg/mL (≈ 2.74 µM)
  MIC Staphylococcus aureus (GC 1131): 2 µg/mL (≈ 1.37 µM)
  MIC Staphylococcus aureus (GC 4541): 2 µg/mL (≈ 1.37 µM)
  MIC Staphylococcus aureus-SMITH (GC 4543): 1 µg/mL (≈ 0.685 µM)
  MIC Coagulase Negative Staphylococcus (GC 4547): 4 µg/mL (≈ 2.74 µM)
  MIC Coagulase Negative Staphylococcus (GC 4548): 1 µg/mL (≈ 0.685 µM)
  MIC Coagulase Negative Staphylococcus (GC 4549): 1 µg/mL (≈ 0.685 µM)
  MIC Coagulase Negative Staphylococcus (GC 6257): 2 µg/mL (≈ 1.37 µM)
[3]; Enterococcus avium (GC 4558)
  MIC Enterococcus avium (GC 4558): 4 µg/mL (≈ 2.74 µM)
[3]; [8]
  MIC Enterococcus faecalis (ATCC 29212): 4 µg/mL (≈ 2.74 µM)
[3]; [9]
  MIC Enterococcus faecalis (GC 2242): 4 µg/mL (≈ 2.74 µM)
[3]; [10]
  MIC Enterococcus faecalis (GC 6189): 1 µg/mL (≈ 0.685 µM)
[3]; Enterococcus faecium (GC 2243)
  MIC Enterococcus faecium (GC 2243): 1 µg/mL (≈ 0.685 µM)
[3]; Enterococcus faecium (GC 4556)
  MIC Enterococcus faecium (GC 4556): 4 µg/mL (≈ 2.74 µM)
[3]; [7]
  MIC Enterococcus avium (GC 4558): 4 µg/mL (≈ 2.74 µM)
  MIC Enterococcus faecalis (ATCC 29212): 4 µg/mL (≈ 2.74 µM)
  MIC Enterococcus faecalis (GC 2242): 4 µg/mL (≈ 2.74 µM)
  MIC Enterococcus faecalis (GC 6189): 1 µg/mL (≈ 0.685 µM)
  MIC Enterococcus faecium (GC 2243): 1 µg/mL (≈ 0.685 µM)
  MIC Enterococcus faecium (GC 4556): 4 µg/mL (≈ 2.74 µM)
[4]
  MIC Escherichia coli (ATCC 25922): 64 µg/mL (≈ 43.8 µM)
  MIC Escherichia coli (GC 4559): >64 µg/mL
  MIC Escherichia coli (GC 4560): 4 µg/mL (≈ 2.74 µM)

From patent US8247211B2, “Glycopeptide antibiotics” (American Cyanamid Company, priority 2001, dated 2012)
